Columns and labels:
IL-1β = assay: PBMC assay: inhibition of IL-1β release after LPS stimulation (MSD); format: cell-based; conditions: Homo sapiens, PBMC, 6 h, human PBMCs, 100 ng/ml LPS for 6 hrs, MSD, 96 well plates; read-out: IL1β IC50
Summary of the method: (§1)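 TNF (EC50) and IL-1β (IC50) were quantified by MSD in supernatants after 6 h stimulation with 100 ng/ml LPS. Thawed healthy-donor PBMCs, 7.5×10^4 per well, were exposed to 1:3 compound dilutions for 30 min beforehand at 37 °C.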

TNF = assay: PBMC assay: TNF cytokine levels after LPS stimulation (MSD); format: cell-based; conditions: Homo sapiens, PBMC, 6 h, human PBMCs, 100 ng/ml LPS for 6 hrs
Summary of the method: as §1

Row | SMILES | IC50 (IL-1β) [µM] | EC50 (TNF) [µM]
1 | CC(C)c1nn(CC(=O)Nc2ccc3nncn3n2)c(=O)c2c(O)cc(C(F)(F)F)cc12 [Final Cpd X82] | 0.888 | 12.9
2 | CC(C)c1nn(CC(=O)Nc2cc(Br)c3ncnn3c2)c(=O)c2ccc(C(F)(F)F)cc12 [Final Cpd X132] | 3.25 | > 20
3 | CC(C)c1nn(CC(=O)Nc2ccncn2)c(=O)c2ccc(C(F)(F)F)cc12 [Final Cpd 15] | 0.176 | > 20
4 | CCc1nn(CC(=O)Nc2ccncn2)c(=O)c2ccccc12 [Final Cpd 12] | > 20 | > 20
5 | CC(C)c1nn(CC(=O)N[C@@H]2CC[C@@](C)(O)C2)c(=O)c2ccc(C(F)(F)F)cc12 [Final Cpd X110] | 1.64 | > 20
6 | Cc1cc(NC(=O)Cn2nc(C(C)C)c3cc(C(F)(F)F)ccc3c2=O)cn2ccnc12 [Final Cpd X92] | 0.97 | > 20
7 | CC(C)(F)c1nn(CC(=O)Nc2ccncn2)c(=O)c2ccc(C(F)(F)F)cc12 [Final Cpd X180] | > 20 | > 20
8 | CC(C)c1nn(CC(=O)Nc2ccc(=O)n(CCN(C)C)n2)c(=O)c2ccc(C(F)(F)F)cc12 [Final Cpd X40] | 0.349 | > 20
9 | CC(=O)N1C[C@@H](O)C[C@H](NC(=O)Cn2nc(C(C)C)c3cc(C(F)(F)F)ccc3c2=O)C1 (single isomer, unassigned) [Final Cpd X159] | 10.3 | > 20
10 | CCc1nn(CC(=O)Nc2ccc3nncn3c2)c(=O)c2ccc(Br)cc12 [Final Cpd 1] | 0.115 | > 20
11 | CC(C)c1nn(CC(=O)Nc2ccc3nncn3c2)c(=O)c2ccc(Br)cc12 [Final Cpd 36] | < 0.025 | > 10
12 | COCCn1nc(NC(=O)Cn2nc(C(C)C)c3cc(C(F)(F)F)ccc3c2=O)ccc1=O [Final Cpd X62] | 0.591 | > 20
13 | CC(C)c1nn(CC(=O)Nc2ccc(=O)n(C)n2)c(=O)c2ccc(C(F)(F)F)cc12 [Final Cpd X33] | 0.252 | > 20
14 | CCN1CCC[C@H](NC(=O)Cn2nc(C(C)C)c3cc(C(F)(F)F)ccc3c2=O)C1=O (single isomer, unassigned) [Final Cpd X129] | 3.07 | > 20
15 | CC(C)c1nn(CC(=O)Nc2ccc3c(c2)ncn3C)c(=O)c2ccc(C(F)(F)F)cc12 [Final Cpd X141] | 4.71 | > 20
16 | CCN1C[C@@H](F)C[C@H](NC(=O)Cn2nc(C(C)C)c3cc(C(F)(F)F)ccc3c2=O)C1 (single isomer, unassigned) [Final Cpd X153] | 7.63 | > 20
17 | CCc1nn(CC(=O)N[C@H]2CC[C@H](O)CC2)c(=O)c2ccc(C3CC3)cc12 [Final Cpd 27] | 1.66 | > 10
18 | CC(C)c1nn(CC(=O)NC2CC(F)(F)C2)c(=O)c2ccc(C(F)(F)F)cc12 [Final Cpd X156] | 8.77 | > 20
19 | CC(C)c1nn(CC(=O)N[C@@H]2CC[C@](C)(O)C2)c(=O)c2ccc(C(F)(F)F)cc12 [Final Cpd X100] | 1.26 | > 20
20 | CCc1nn(CC(=O)N[C@H]2CC[C@H](O)CC2)c(=O)c2ccc(C(C)C)cc12 [Final Cpd 28] | 0.97 | > 10
21 | COc1ccc2c(=O)n(CC(=O)Nc3ccncn3)nc(C(C)C)c2c1 [Final Cpd 10, 2-(4-isopropyl-6-methoxy-1-oxo-phthalazin-2-yl)-N-pyrimidin-4-yl-acetamide] | 2.32 | > 10
22 | CC(C)c1nn(CC(=O)Nc2ccc(C3CC3)nn2)c(=O)c2ccc(C(F)(F)F)cc12 [Final Cpd X179] | > 20 | > 20
23 | CCc1nn(CC(=O)Nc2ccc3nncn3c2)c(=O)c2ccc(C3CC3)cc12 [Final Cpd 3] | 0.124 | 14.9

Row | SMILES | IC50 (IL-1β) [µM] | EC50 (TNF) [µM]
24 | CC(C)c1nn(CC(=O)N[C@H]2C[C@@H](O)CN(C)C2)c(=O)c2ccc(C(F)(F)F)cc12 [Final Cpd X122] | 2.68 | > 20
25 | Cc1cc2nccn2cc1NC(=O)Cn1nc(C(C)C)c2cc(C(F)(F)F)ccc2c1=O [Final Cpd X167] | 17.8 | > 20
26 | C[C@]1(O)C[C@@H](NC(=O)Cn2nc(C(O)C(F)(F)F)c3cc(C(F)(F)F)ccc3c2=O)C1 (stereo partly drawn) [Final Cpd X84] | 0.911 | > 20
27 | CC(C)c1nn(CC(=O)Nc2ncc3ncn(C)c3n2)c(=O)c2ccc(C(F)(F)F)cc12 [Final Cpd X181] | > 20 | > 20
28 | CCc1nn(CC(=O)Nc2ccncn2)c(=O)c2ccc(C(F)(F)F)cc12 [Final Cpd 9] | 0.58 | > 10
29 | CO[C@H]1C[C@H](NC(=O)Cn2nc(C(C)C)c3cc(C(F)(F)F)ccc3c2=O)C1 [Final Cpd X105] | 1.52 | > 20
30 | CC(C)c1nn(CC(=O)Nc2ccc3nnc(Cl)n3n2)c(=O)c2ccc(C(F)(F)F)cc12 [Final Cpd X63] | 0.6 | > 20
31 | CC(C)c1nn(CC(=O)N[C@@H]2CCC[C@H]2O)c(=O)c2ccc(C(F)(F)F)cc12 [Final Cpd X86] | 0.915 | > 20
32 | CCc1nn(CC(=O)Nc2ccncn2)c(=O)c2ccc(C3CC3)cc12 [Final Cpd 5] | 0.42 | > 10
33 | CCc1ccc2c(=O)n(CC(=O)N[C@H]3CC[C@H](O)CC3)nc(CC)c2c1 [Final Cpd 29] | 3.59 | > 10
34 | CC(C)c1nn(CC(=O)Nc2ccc3c(c2)[nH]c(=O)n3C)c(=O)c2ccc(C(F)(F)F)cc12 [Final Cpd X5] | 0.064 | > 20
35 | COC(C)c1nn(CC(=O)Nc2ccc3nncn3c2)c(=O)c2ccc(C(F)(F)F)cc12 (stereo not drawn) [Final Cpd X102] | 1.3 | > 20
36 | CCN1CCC(NC(=O)Cn2nc(C(C)C)c3cc(C(F)(F)F)ccc3c2=O)CC1 [Final Cpd X143] | 4.93 | > 20
37 | COC(c1nn(CC(=O)Nc2ccc3nncn3c2)c(=O)c2ccc(C(F)(F)F)cc12)C(F)(F)F (stereo not drawn) [Final Cpd X135] | 3.44 | > 20
38 | CCc1nn(CC(=O)NC2CC2)c(=O)c2ccccc12 [Final Cpd 14] | > 20 | > 20
39 | CC(C)c1nn(CC(=O)Nc2nc(Cl)c3ncn(C)c3n2)c(=O)c2ccc(C(F)(F)F)cc12 [Final Cpd X96] | 1.11 | > 20
40 | Cc1cn2cc(NC(=O)Cn3nc(C(C)C)c4cc(C(F)(F)F)ccc4c3=O)ccc2n1 [Final Cpd X27] | 0.189 | > 20
41 | CC(C)(F)c1nn(CC(=O)Nc2ccnnc2)c(=O)c2ccc(C(F)(F)F)cc12 [Final Cpd X155] | 7.91 | 17.6
42 | CCc1nn(CC(=O)N[C@H]2CC[C@H](O)CC2)c(=O)c2ccc(C(F)(F)F)cc12 [Final Cpd 30] | 1.29 | > 10
43 | O=C(Cn1nc(C2CC2)c2cc(C(F)(F)F)ccc2c1=O)N[C@H]1CN(C2CC2)CC[C@H]1O [Final Cpd X45] | 0.384 | > 20
44 | CC(C)c1nn(CC(=O)Nc2ncnc3c2ncn3C)c(=O)c2ccc(C(F)(F)F)cc12 [Final Cpd X69] | 0.735 | > 20
45 | CCc1nn(CC(=O)Nc2ccncn2)c(=O)c2ccc(C(C)C)cc12 [Final Cpd 6] | 0.45 | > 10

The remaining lines, values ahead:

Row | IC50 (IL-1β) [µM] | EC50 (TNF) [µM] | SMILES
46 | 4.38 | 8.29 | CC(C)c1nn(CC(=O)Nc2ccncn2)c(=O)c2ccc(C(C)(C)O)cc12 [X-1044]
47 | 13 | > 20 | CC(C)c1nn(CC(=O)N[C@H]2C[C@@](C)(O)C2)c(=O)c2ccc(OCC(F)(F)F)cc12 [X-1039]
48 | 0.128 | 4.47 | CC(C)c1nn(CC(=O)Nc2ccc3nccn3n2)c(=O)c2ccc(C(C)(F)F)cc12 [X-1006]
49 | 1.47 | > 20 | CC(C)c1nn(CC(=O)Nc2ccc3cnn(C)c3n2)c(=O)c2ccc(Br)cc12 [X-1005]
50 | 0.398 | > 20 | O=C(Cn1nc(C2CC2)c2cc(Cl)ccc2c1=O)Nc1ccc2nncn2c1 [X-1071]
51 | 0.497 | > 20 | Cn1nc(NC(=O)Cn2nc(C3CC3)c3cc(Br)ccc3c2=O)ccc1=O [X-1024]
52 | 0.128 | > 20 | CC(C)c1nn(CC(=O)Nc2ccncn2)c(=O)c2ccc(Cl)cc12 [X-1028]
53 | > 20 | > 20 | CCc1nn(CC(=O)Nc2c(-c3ccnc(OC)c3)ccc3c2CCC3)c(=O)c2ccc(Br)cc12 [X-1013]
54 | 12.2 | > 20 | CCOC(C)c1ccc2c(=O)n(CC(=O)N[C@H]3C[C@@](C)(O)C3)nc(C(C)C)c2c1 (stereo partly drawn) [X-1042]
55 | 0.346 | > 20 | CC(O)c1nn(CC(=O)Nc2ccc3nncn3c2)c(=O)c2ccc(Br)cc12 (stereo not drawn) [X-1082]
56 | 0.406 | > 20 | C[C@]1(O)C[C@@H](NC(=O)Cn2nc(C3CC3)c3cc(Cl)ccc3c2=O)C1 [X-1070]
57 | 0.819 | > 20 | COC(C)c1nn(CC(=O)Nc2ccncn2)c(=O)c2ccc(Br)cc12 (stereo not drawn) [X-1016]
58 | 0.894 | > 20 | CC(O)c1nn(CC(=O)Nc2ccncn2)c(=O)c2ccc(Br)cc12 (stereo not drawn) [X-1081]
59 | 0.502 | > 20 | CC(O)c1nn(CC(=O)N[C@H]2C[C@@](C)(O)C2)c(=O)c2ccc(Br)cc12 (stereo partly drawn) [X-1080]
60 | 1.57 | > 20 | CC(C)c1nn(CC(=O)N[C@H]2C[C@@](C)(O)C2)c(=O)c2ccc(N(C)C)cc12 [X-1047]
61 | 0.027 | 14.8 | CC(C)c1nn(CC(=O)Nc2ccc3nncn3c2)c(=O)c2ccc(C3(F)CC3)cc12 [X-1074]
62 | 0.506 | > 20 | COC(C)c1nn(CC(=O)Nc2ccc3nncn3c2)c(=O)c2ccc(Br)cc12 (stereo not drawn) [X-1017]
63 | 0.03 | 4.64 | CC(C)c1nn(CC(=O)Nc2ccc3c(c2)[nH]c(=O)n3C)c(=O)c2ccc(Br)cc12 [X-1031]
